Entries after “also recorded” stand apart in the source; their conditions may differ. Read-outs that look alike come from different tables or passages of the source.
Legend:
[1] = tested on: HOmyc3 (MYC reconstituted HO15.19) Rat1 fibroblasts; test: WST-1 growth assay, HOmyc3 (MYC reconstituted) Rat1 fibroblasts; type: cell-based, rat
Protocol: Cell proliferation assays. Cell growth and viability was estimated in triplicates with WST-1
(Roche) or Resazurin sodium salt (Sigma-Aldrich) assays in medium at 37°C and 5% CO 2 for
2 hours after which absorbance or fluorescence, respectively, was measured with an Omega
Fluostar (BMG Labtech) in a 96 well plate format. […]
(§1) 0.7% agarose. […]

[2] = target: S-adenosylmethionine decarboxylase (AdoMetDC); design: method as in PMID 17676832; conditions: cited from earlier work
[3] = target: MXD1 (MAD1) bHLHZip (Homo sapiens, UniProt Q05195); test: SPR binding to MXD1 (MAD1)
Sequence of MXD1 (MAD1) bHLHZip (Q05195 56-137 limits assumed): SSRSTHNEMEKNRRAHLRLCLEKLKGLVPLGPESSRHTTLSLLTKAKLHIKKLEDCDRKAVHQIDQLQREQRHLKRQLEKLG
Protocol: (§2) The MYC SPR assay was carried out as described above with MYCbHLHZip immobilized to a level of 800–1000 RU. For kinetic binding experiments, a Langmuir 1:1 binding event was applied using the Biacore T200 Evaluation Software 2.0 (GE Healthcare) to determine association (ka) and dissociation (kd) constants of the compound and to calculate affinity (KD) by the formula; KD = kd/ka. Binding responses from equilibrium binding experiments were plotted against compound concentration and KD values were determined at 50% of the theoretical Rmax with the formula Rmax = (MW analyte/MW ligand) × immobilized ligand level on the chip (RU) × stoichiometry (1:1). Same coupling method described above was used to immobilize the control proteins. MAX was immobilized to approximately 2000 RU, MAD to 600 RU, BSA to 1000 RU, p53 to 3000 RU and BCL-XL, to 500 RU.

[4] = tested on: hTERT; design: method as in PMID 23173022; conditions: found artificial, unspecific DNA binding; cited from earlier work
[5] = target: T1, MYC bHLHZip (Homo sapiens, UniProt P01106); test: SPR direct binding to immobilized MYC
T1 construct: 6xHis (N); made in house; host or cells: E. coli BL21 (DE3), pET28a; purified in denaturing conditions
T1 sequence (P01106 367-447 limits assumed): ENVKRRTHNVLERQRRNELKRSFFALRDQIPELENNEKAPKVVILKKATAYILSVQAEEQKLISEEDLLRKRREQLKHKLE
Protocol: Further, MYCMI-6 binding to MAX, MXD1 (MAD1) (Figs 4C and S5C and D), p53 (Fig. 4D), BSA (Suppl. Fig. S5E) and YFP (data not shown) were negligible. Binding to BCL-XL was only 10% of the theoretical maximum at 2 μM MYCMI-6 (Suppl. Fig. S5F).
as §2

[6] = tested on: T2, BCL-XL; test: SPR binding to BCL-XL
T2 construct: purchased Abcam
Protocol: as §2

[7] = tested on: Burkitt's lymphoma cell lines Mutu, Daudi and ST486; test: Growth of Burkitt's lymphoma cell lines; type: cell-based
Protocol: Cell proliferation assays. Cell growth and viability was estimated in triplicates with WST-1 (Roche) or Resazurin sodium salt (Sigma-Aldrich) assays in medium at 37°C and 5% CO 2 for 2 hours after which absorbance or fluorescence, respectively, was measured with an Omega Fluostar (BMG Labtech) in a 96 well plate format. Cell counting was done in 96 well plates with CellTracker Green (ThermoFisher) for 30 min in the incubator, after which DAPI was added for 5 min. Images were taken in the green (FITC) and blue (DAPI) channels using a fluorescence microscope (ImageXpress Micro, Molecular Devices). […]
as §1

[8] = tested on: MYCN-amplified SK-N-DZ neuroblastoma cells; test: Viable/dead cell counting, SK-N-DZ; type: cell-based, human; conditions: 12.5 μM, 24 hours
Protocol: Cell proliferation assays. […]
Fluostar (BMG Labtech) in a 96 well plate format. Cell counting was done in 96 well plates with CellTracker Green (ThermoFisher) for 30 min in the incubator, after which DAPI was added for 5 min. Images were taken in the green (FITC) and blue (DAPI) channels using a fluorescence microscope (ImageXpress Micro, Molecular Devices). […]
as §1

For `CCOc1ccc2nc3cc(/N=N/c4ccc(N)nc4N)ccc3c(N)c2c1` [MYCMI-6], the “growth of MYC reconstituted (HOmyc3) cells” value [1] is given as “strongly inhibited growth”, the “IC50 for AdoMetDC relative to MYC:MAX in vitro” value [2] is given as “approximately 10 fold” and the “binding to MXD1 (MAD1) (SPR)” value [3] is given as “negligible”. The “IC50 for hTERT relative to MYC:MAX in vitro” value [4] was “approximately 10 fold”, the Kd ([5]; 1:1 Langmuir model, four kinetic experiments, read-out: KD for MYC bHLHZip, SPR kinetic experiments, average) was 1600 ± 500 nM and the Kd ([5]; 50% of Rmax, four equilibrium experiments, read-out: KD for MYC bHLHZip, SPR equilibrium binding plot) was 1500 to 2000 nM. It also gave a Kd ([5]; Langmuir 1:1, constant Rmax 43 RU, read-out: KD for MYC bHLHZip, SPR, one representative kinetic experiment) of 2500 nM, a kon ([5]; SPR, representative experiment, read-out: association rate ka) of 9290 M⁻¹ s⁻¹ and a koff ([5]; SPR, representative experiment, read-out: dissociation rate kd) of 0.0229 s⁻¹. The “fold lower affinity for BCL-XL than for MYC” value [6] was at least 5 fold, the “binding to BCL-XL, % of the theoretical maximum (SPR)” value ([6]; 2 μM MYCMI-6) was 10% and the GI50 ([7]; Burkitts lymphoma cell, Mutu, Daudi, ST486, read-out: average GI50, Burkitt's lymphoma cells) was 500 nM. For the same compound, the “lowest IC50/GI50 of tumor cell growth” value ([7]; neuroblastoma and Burkitt's lymphoma cells with deregulated MYCN/MYC, as low as) was at least 500 nM and the “cell death and cell number, SK-N-DZ” value [8] was “dramatically increased cell death and reduced cell number; also recorded: killed almost 100%”.

— publication PMC6030159 (Scientific Reports, 2018)
